Results reported in US11072617B2, “Bicyclic sulfones and sulfoxides and methods of use thereof” (Genentech, Inc., priority 2017, dated 2021).
pKi: −log10 of the molar value.

Target: human RIP1 kinase domain (2-375) (Homo sapiens (Human), UniProt Q13546)
Assay: RIP1 kinase inhibition biochemical assay (Transcreener ADP, fluorescence polarization)
Details: Ki app from tight-binding Morrison equation; 50 nM enzyme, 50 uM ATP, 2 hours incubation
Method in brief: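 Baculovirus-expressed human RIP1 kinase domain (2-375), 50 nM, incubated 2 h with compounds in pH 7.5 Hepes, 30 mM MgCl2, 50 uM ATP, 0.5% DMSO. ADP detected by Transcreener fluorescence-polarization tracer displacement; Ki^app from Morrison tight-binding fit.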

Sequence of human RIP1 kinase domain (2-375) (Q13546 2-375): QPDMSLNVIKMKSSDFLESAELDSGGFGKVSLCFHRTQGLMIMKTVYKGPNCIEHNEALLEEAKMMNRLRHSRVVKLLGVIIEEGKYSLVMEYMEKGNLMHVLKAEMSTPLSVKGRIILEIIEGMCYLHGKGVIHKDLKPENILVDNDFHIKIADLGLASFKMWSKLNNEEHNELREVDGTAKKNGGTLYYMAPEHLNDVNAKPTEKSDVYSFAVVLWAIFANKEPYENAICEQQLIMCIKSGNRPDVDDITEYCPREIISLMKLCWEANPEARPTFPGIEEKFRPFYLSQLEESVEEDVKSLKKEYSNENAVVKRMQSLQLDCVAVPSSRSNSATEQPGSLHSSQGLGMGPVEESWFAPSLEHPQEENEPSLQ

Row | pKi | Structure (SMILES)
1 | 6.89 | [O-][S@+](CC1CC1)c1nc2n(n1)[C@H](c1ccccc1)C[C@@H]2F (single isomer, unassigned) [Example 184]
2 | 6.01 | O=S(=O)(c1nc2n(n1)[C@@H](c1ccccc1)C[C@H]2F)C1CC1 (single isomer, unassigned) [Example 14]
3 | > 8.30 | [O-][S@@+](CF)c1nc2n(n1)[C@H](c1cccc(F)c1)C[C@@H]2F (single isomer, unassigned) [Example 82]
4 | 5.49 | O=S(=O)(c1ccccc1)c1nc2n(n1)[C@H](c1ccccc1)C[C@@H]2F (single isomer, unassigned) [Example 26]
5 | 7.64 | O=S(=O)(c1nc2n(n1)[C@H](c1cc(F)cc(F)c1)C[C@@H]2F)[C@H]1C[C@H](F)C1 (single isomer, unassigned) [Example 193]
6 | 8.22 | O=S(=O)(c1nc2n(n1)[C@H](c1ccccc1)C[C@@H]2F)C1COC1 (single isomer, unassigned) [Example 228]
7 | 6.68 | [O-][S@@+](c1nc2n(n1)[C@H](c1cccc(F)c1)C[C@@H]2F)C(F)F (single isomer, unassigned) [Example 179]
8 | > 8.30 | [O-][S@@+](CF)c1nc2n(n1)[C@H](c1ccccc1F)C[C@@H]2F (single isomer, unassigned) [Example 74]
9 | 8.00 | [O-][S@+](c1nc2n(n1)[C@H](c1ccccc1)CC2)C(F)F [Example 11, (5S)-2-[(R)-difluoromethylsulfinyl]-5-phenyl-6,7-dihydro-5H-pyrrolo[1,2-b][1,2,4]triazole]
10 | 7.34 | C[S+]([O-])c1nc2n(n1)[C@H](c1ccccc1)C[C@@H]2F (stereo partly drawn) [Example 105, (5S,7S)-7-fluoro-2-methylsulfinyl-5-phenyl-6,7-dihydro-5H-pyrrolo[1,2-b][1,2,4]triazole]
11 | 7.49 | CC(C)(C)S(=O)(=O)c1nc2n(n1)[C@H](c1ccccc1)C[C@@H]2F (single isomer, unassigned) [Example 25]
12 | 8.22 | [O-][S@+](c1nc2n(n1)[C@H](c1cccc(F)c1)C[C@@H]2F)C(F)F (single isomer, unassigned) [Example 182]
13 | 8.52 | [O-][S@+](c1nc2n(n1)[C@H](c1ccccc1F)C[C@@H]2F)C(F)F (single isomer, unassigned) [Example 52]
14 | 7.80 | CC(F)(F)S(=O)(=O)c1nc2n(n1)[C@H](c1ccccc1)C[C@@H]2F (single isomer, unassigned) [Example 149]
15 | 6.85 | [2H][C@H]1C[C@@H](c2ccccc2)n2nc(S(=O)(=O)C3CC3)nc21 [Example 41, (5S,7S)-2-cyclopropylsulfonyl-7-deuterio-5-phenyl-6,7-dihydro-5H-pyrrolo[1,2-b][1,2,4]triazole]
16 | 7.05 | [O-][S@+](CF)c1nc2n(n1)[C@H](c1ccccc1)C[C@@H]2F [Example 71]
17 | 8.15 | O=S(=O)(c1nc2n(n1)[C@H](c1ccccc1)C[C@@H]2F)[C@H]1C[C@@H]1C(F)(F)F (mixture of isomers) [Example 163, (5S,7S)-7-fluoro-5-phenyl-2-[rac-(1S,2R)-2-(trifluoromethyl)cyclopropyl]sulfonyl-6,7-dihydro-5H-pyrrolo[1,2-b][1,2,4]triazole]
18 | 6.85 | O=S(=O)(c1nc2n(n1)[C@H](c1cc(Cl)ccc1F)C[C@@H]2F)C1CC1F (stereo in doubt) [Example 218, (5S,7S)-5-(5-chloro-2-fluoro-phenyl)-7-fluoro-2-[(1R,2R)-2-fluorocyclopropyl]sulfonyl-6,7-dihydro-5H-pyrrolo[1,2-b][1,2,4]triazole]
19 | 7.00 | [O-][S@@+](c1nc2n(n1)[C@H](c1ccccc1)C[C@@H]2F)C(F)F [Example 21, (5S,7S)-2-[(S)-difluoromethylsulfinyl]-7-fluoro-5-phenyl-6,7-dihydro-5H-pyrrolo[1,2-b][1,2,4]triazole]
20 | 8.05 | O=S(=O)(c1nc2n(n1)[C@H](c1ccc(F)c(F)c1)C[C@@H]2F)[C@@H]1C[C@H]1F (single isomer, unassigned) [Example 144]
21 | 6.06 | CCS(=O)(=O)c1nc2n(n1)C(c1ccccc1)CC2 (racemic) [Example 2, 2-ethylsulfonyl-5-phenyl-6,7-dihydro-5H-pyrrolo[1,2-b][1,2,4]triazole]
22 | 6.82 | O=S(=O)(c1nc2n(n1)C(c1ccccc1)CC2)C(F)(F)c1ccccc1 (racemic) [Example 4, 2-[difluoro(phenyl)methyl]sulfonyl-5-phenyl-6,7-dihydro-5H-pyrrolo[1,2-b][1,2,4]triazole]
23 | 7.21 | N#CC1CC1S(=O)(=O)c1nc2n(n1)[C@H](c1ccccc1)C[C@@H]2F (stereo in doubt) [Example 222, (1R,2R)-2-[[(5S,7S)-7-fluoro-5-phenyl-6,7-dihydro-5H-pyrrolo[1,2-b][1,2,4]triazol-2-yl]sulfonyl]cyclopropanecarbonitrile]
24 | 6.77 | COCS(=O)(=O)c1nc2n(n1)[C@H](c1ccccc1)C[C@@H]2F (single isomer, unassigned) [Example 116]

Row | pKi | Structure (SMILES)
25 | 6.72 | N#CC[S@+]([O-])c1nc2n(n1)[C@H](c1cccc(F)c1)C[C@@H]2F (single isomer, unassigned) [Example 97]
26 | 7.92 | CC1(S(=O)(=O)c2nc3n(n2)[C@H](c2ccccc2)C[C@@H]3F)CC1(F)F (stereo partly drawn) [Example 167, (5S,7S)-2-((2,2-difluoro-1-methylcyclopropyl)sulfonyl)-7-fluoro-5-phenyl-6,7-dihydro-5H-pyrrolo[1,2-b][1,2,4]triazole]
27 | 8.30 | CC(C)(C)[S@@+]([O-])c1nc2n(n1)[C@H](c1ccccc1)C[C@@H]2F (single isomer, unassigned) [Example 191]
28 | 6.85 | [O-][S@@+](c1nc2n(n1)[C@H](c1ccccc1F)C[C@@H]2F)C(F)F (single isomer, unassigned) [Example 51]
29 | 7.00 | O=S(=O)(c1nc2n(n1)CCC2c1ccccc1)C(F)F (racemic) [Example 220, 2-(Difluoromethylsulfonyl)-7-phenyl-6,7-dihydro-5H-pyrrolo[1,2-b][1,2,4]triazole]
30 | 7.37 | O=S(=O)(c1nc2n(n1)[C@H](c1ccccc1)C[C@@H]2F)C1CCOC1 (stereo partly drawn) [Example 166, (5S,7S)-7-fluoro-5-phenyl-2-tetrahydrofuran-3-ylsulfonyl-6,7-dihydro-5H-pyrrolo[1,2-b][1,2,4]triazole]
31 | 8.22 | O=S(=O)(c1nc2n(n1)[C@H](c1cc(F)ccc1F)C[C@@H]2F)C1CC1 (single isomer, unassigned) [Example 37]
32 | 7.77 | [O-][S+](c1nc2n(n1)[C@H](c1cccc(F)c1)C[C@@H]2F)C(F)F (stereo partly drawn) [Example 54, (5S,7S)-2-((difluoromethyl)sulfinyl)-7-fluoro-5-(3-fluorophenyl)-6,7-dihydro-5H-pyrrolo[1,2-b][1,2,4]triazole]
33 | 8.00 | O=S(=O)(c1nc2n(n1)[C@H](c1cccc(F)c1F)C[C@@H]2F)[C@@H]1CC1(F)F (single isomer, unassigned) [Example 128]
34 | 7.17 | O=S(=O)(c1nc2n(n1)[C@H](c1cc(Cl)ccc1F)C[C@@H]2F)C1CC1 (single isomer, unassigned) [Example 47]
35 | 7.25 | O=S(=O)(c1nc2n(n1)[C@H](c1ccccc1Cl)CC2)C(F)F [Example 16, (5S)-5-(2-chlorophenyl)-2-(difluoromethylsulfonyl)-6,7-dihydro-5H-pyrrolo[1,2-b][1,2,4]triazole]
36 | 7.28 | O=S(=O)(c1nc2n(n1)[C@H](c1ccccc1)C[C@@H]2F)[C@H]1C[C@@H](CF)C1 (single isomer, unassigned) [Example 169]
37 | 8.30 | O=S(=O)(c1nc2n(n1)[C@H](c1c(F)cccc1F)C[C@@H]2F)C1CC1 (single isomer, unassigned) [Example 35]
38 | 6.85 | [O-][S+](Cc1ccccn1)c1nc2n(n1)[C@H](c1ccccc1)C[C@@H]2F (stereo partly drawn) [Example 147, (5S,7S)-7-fluoro-5-phenyl-2-((pyridin-2-ylmethyl)sulfinyl)-6,7-dihydro-5H-pyrrolo[1,2-b][1,2,4]triazole]
39 | 7.72 | CC(C)[S+]([O-])c1nc2n(n1)[C@H](c1ccccc1)C[C@@H]2F (stereo partly drawn) [Example 109, (5S,7S)-7-fluoro-2-isopropylsulfinyl-5-phenyl-6,7-dihydro-5H-pyrrolo[1,2-b][1,2,4]triazole]
40 | 7.89 | O=S(=O)(c1nc2n(n1)[C@H](c1ccccc1F)C[C@@H]2F)C(F)F (single isomer, unassigned) [Example 53]
41 | 7.04 | N#CC[S@+]([O-])c1nc2n(n1)[C@H](c1ccccc1Cl)C[C@@H]2F (single isomer, unassigned) [Example 93]
42 | > 8.30 | O=S(=O)(c1nc2n(n1)[C@H](c1ccccc1)C[C@@H]2F)[C@@H]1CCC1(F)F [Example 171, (5S,7S)-7-fluoro-5-phenyl-2-[(1R)-2,2-difluorocyclobutyl]sulfonyl-6,7-dihydro-5H-pyrrolo[1,2-b][1,2,4]triazole]
43 | 6.82 | N#CC[S@@+]([O-])c1cc2n(n1)[C@H](c1ccccc1)C[C@@H]2F (single isomer, unassigned) [Example 91]
44 | 8.40 | O=S(=O)(c1nc2n(n1)[C@H](c1ccccc1)C[C@@H]2F)C1CC1 [Example 30, (5S,7S)-2-cyclopropylsulfonyl-7-fluoro-5-phenyl-6,7-dihydro-5H-pyrrolo[1,2-b][1,2,4]triazole]
45 | 7.60 | CC(C)(F)S(=O)(=O)c1nc2n(n1)[C@H](c1ccccc1)C[C@@H]2F (single isomer, unassigned) [Example 165]
46 | 7.05 | [O-][S+](c1nc2n(n1)C(c1ccccc1)CC2)C(F)(F)F (centres unmarked) [Example 10, 5-phenyl-2-(trifluoromethylsulfinyl)-6,7-dihydro-5H-pyrrolo[1,2-b][1,2,4]triazole]
47 | 8.52 | N#CC[S@@+]([O-])c1nc2n(n1)[C@H](c1cccc(F)c1)C[C@@H]2F (single isomer, unassigned) [Example 98]
